Data as given in patent US20230278972A1, “SUBSTITUTED HALOALKYL SULFONANILIDE HERBICIDES” (FMC Corporation, priority 2020, published 2023).

Tests used:
Assay type in all cases: in vivo
[1] = system: Foxtail, Giant (giant foxtail, Setaria faberi); test: Test A1 preemergence, Foxtail, Giant
How it was run: (§1)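 Both timings started from seed in a loam-sand blend. Preemergence pots got a directed soil application immediately; postemergence pots were sprayed when seedlings had one or two leaves and stood 2–10 cm. Each compound was prepared in a non-phytotoxic solvent plus surfactant.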

[2] = system: Pigweed, Palmer (palmer amaranth, palmer pigweed, Amaranthus palmeri); test: Test A1 preemergence, Pigweed, Palmer
How it was run: as §1

[3] = system: ducksalad (Heteranthera limosa); test: Test B1 flooded paddy test, ducksalad; settings: 250 g ai/ha, Flood, applied to paddy water, 2-leaf stage, visually evaluated after 10 to 14 days
Source text: A dash (-) response means no test result.

[4] = system: wheat (Triticum aestivum); test: Test A1 postemergence, wheat; settings: for Wheat plant response rating: postemergence; for Plant response rating, Wheat: Postemergence
How it was run: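 Herbicidal response was scored on plants treated either preemergence, by directed spray onto soil of a loam–sand blend after sowing, or postemergence on potted plants at the one- to two-leaf stage, 2–10 cm high. Test chemicals were carried in a non-phytotoxic solvent mix with surfactant.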

[5] = system: Oat, Wild (wild oat, Avena fatua); test: Test A1 preemergence, Oat, Wild
How it was run: as §1

[6] = system: Pigweed, Palmer (palmer amaranth, palmer pigweed, Amaranthus palmeri); test: Test A1 postemergence, Pigweed, Palmer; settings: for Pigweed, Palmer plant response rating: postemergence; for Plant response rating, Pigweed, Palmer: Postemergence
How it was run: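 Pre: seeds in loam/sand blend, directed soil spray. Post: potted plants, same soil, 2–10 cm, 1–2 leaf stage. Chemicals in non-phytotoxic solvent + surfactant for both.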

[7] = 31 g ai/ha, 0 to 100 scale (0 no effect, 100 complete control)
[8] = 125 g ai/ha, 0 to 100 scale, 0 no effect, 100 complete control
[9] = 31 g ai/ha, 0 to 100 scale (0 no effect, 100 complete control), 10 days
[10] = 125 g ai/ha, 0 to 100 scale (0 no effect, 100 complete control), 10 days

| SMILES | Plant response rating, Foxtail, Giant [1, 7] | Plant response rating, Foxtail, Giant [1, 8] | Plant response rating, Pigweed, Palmer [2, 7] | Plant response rating, Pigweed, Palmer [2, 8] | Plant response rating, Ducksalad (0 to 100 scale, 0 is no effect, 100 is complete control) [3] | Wheat plant response rating [4, 7] | Plant response rating, Wheat ([4]; 125 g ai/ha, 0 to 100 scale) | Plant response rating, Oat, Wild [5, 7] | Plant response rating, Oat, Wild [5, 8] | Pigweed, Palmer plant response rating [6, 7] | Plant response rating, Pigweed, Palmer ([6]; 125 g ai/ha, 0 to 100 scale) | Plant response rating, Wheat [4, 9] | Plant response rating, Pigweed, Palmer [6, 9] | Plant response rating, Wheat [4, 10] | Plant response rating, Pigweed, Palmer [6, 10] |
| --- | --- | --- | --- | --- | --- | --- | --- | --- | --- | --- | --- | --- | --- | --- | --- |
| Cc1c(C(=O)N2C[C@@H](C)O[C@H](C)C2)cc(N(COC(=O)C(C)(C)C)S(=O)(=O)C(F)(F)F)c(C)c1C (relative stereo) [Compound 373] | 0 | 90 | 20 | 40 | 85 | 0 | 70 | 0 | 0 | 0 | 10 | – | – | – | – |
| CCOC(=O)N(c1cc(C(=O)N2C[C@@H](C)O[C@H](C)C2)c(C)c(C)c1C)S(=O)(=O)C(F)(F)F (relative stereo) [Compound 374] | 50 | 100 | 60 | 80 | 85 | 20 | 50 | 0 | 30 | 10 | 30 | – | – | – | – |
| Cc1c(NS(=O)(=O)C(F)(F)F)cc(C(=O)N2CCSCC2)c(C)c1C [Compound 283] | 10 | 90 | 10 | 50 | 50 | – | 50 | – | 0 | – | 50 | 10 | 10 | – | – |
| Cc1c(C(=O)N2CCSCC2)cc(N(COC(=O)C(C)(C)C)S(=O)(=O)C(F)(F)F)c(C)c1C [Compound 285] | 40 | 90 | 10 | 20 | 50 | – | 20 | 0 | 20 | – | 20 | 10 | 0 | – | – |
| CCOC(=O)N(c1cc(C(=O)N2CCSCC2)c(C)c(C)c1C)S(=O)(=O)C(F)(F)F [Compound 286] | 80 | 100 | 50 | 70 | 50 | – | 20 | 0 | 0 | – | 30 | 0 | 0 | – | – |
| COC1CCN(C(=O)c2cc(N(COC(=O)C(C)(C)C)S(=O)(=O)C(F)(F)F)c(C)c(C)c2C)CC1 [Compound 370] | 10 | 90 | 30 | 70 | 70 | 10 | 20 | 0 | 0 | 0 | 20 | – | – | – | – |
| C#CCN(C)C(=O)c1cc(N(COC(=O)C(C)(C)C)S(=O)(=O)C(F)(F)F)c(C)c(C)c1C [Compound 371] | 10 | 100 | 10 | 80 | 55 | 0 | 60 | 0 | 0 | 0 | 30 | – | – | – | – |
| Cc1cc(C)c(C2=NOC3OCCCC23)cc1NS(=O)(=O)C(F)(F)F (centres unmarked) [Compound 372] | 90 | 100 | 40 | 90 | 65 | 10 | 70 | 0 | 20 | 30 | 40 | – | – | – | – |
| Cc1ccc(C2=NOC3CCCC23)cc1NS(=O)(=O)C(F)(F)F (centres unmarked) [Compound 377] | 0 | 0 | 0 | 0 | 15 | 0 | 20 | 0 | 0 | 0 | 0 | – | – | – | – |
| CCOC(=O)N(c1cc(C2=NOC3CCCC23)c(CC)cc1C)S(=O)(=O)C(F)(F)F (centres unmarked) [Compound 379] | 0 | 70 | – | – | 60 | 20 | 70 | 0 | 20 | 0 | 10 | – | – | – | – |
| Cc1c(NS(=O)(=O)C(F)(F)F)cc(C2=NOC3(CCCC3)C2)c(C)c1C [Compound 380] | 80 | 100 | 30 | 40 | 70 | 0 | – | 20 | 90 | 0 | – | – | – | 80 | 10 |
| Cc1c(C2=NOC3(CCCC3)C2)cc(N(COC(=O)C(C)(C)C)S(=O)(=O)C(F)(F)F)c(C)c1C [Compound 382] | 0 | 30 | 0 | 20 | 25 | 0 | – | 20 | 40 | 0 | – | – | – | 60 | 20 |
| Cc1cc(C)c(N(COC(=O)C(C)(C)C)S(=O)(=O)C(F)(F)F)cc1C1=NOC(C(C)C)C1 (centres unmarked) [Compound 383] | 0 | 20 | 0 | 0 | 25 | 0 | – | 0 | 30 | 0 | – | – | – | 70 | 10 |
| Cc1cc(C)c(N2CC3(CCCCC3)CC2=O)cc1NS(=O)(=O)C(F)(F)F [Compound 392] | 0 | 100 | 0 | 20 | 65 | 0 | – | 20 | 60 | 0 | – | – | – | 30 | 40 |
| Cc1cc(Cl)c(NS(=O)(=O)C(F)(F)F)cc1N1CCC2(CCCCC2)C1=O [Compound 393] | 70 | 100 | 30 | 60 | 95 | 30 | – | 10 | 70 | 0 | – | – | – | 60 | 80 |
| COC1CCC2(CC1)CCN(c1cc(NS(=O)(=O)C(F)(F)F)c(C)cc1C)C2=O (centres unmarked) [Compound 398] | 90 | 100 | 80 | 100 | 95 | 60 | – | 20 | 70 | 50 | – | – | – | 70 | 80 |
| Cc1cc(C)c(N(S(=O)(=O)C(F)(F)F)S(=O)(=O)C(F)(F)F)cc1N1CCC2(CCC(C(F)(F)F)CC2)C1=O (centres unmarked) [Compound 399] | 10 | 90 | 30 | 60 | 75 | 60 | – | 20 | 40 | 30 | – | – | – | 60 | 70 |
| Cc1cc(C)c(N2CCC3(CCC(C(F)(F)F)CC3)C2=O)cc1NS(=O)(=O)C(F)(F)F (centres unmarked) [Compound 400] | 20 | 90 | 50 | 100 | 55 | 30 | – | 50 | 90 | 20 | – | – | – | 30 | 70 |
| Cc1cc(C)c(N(COC(=O)C(C)(C)C)S(=O)(=O)C(F)(F)F)cc1N1CCC2(CCC(C)CC2)C1=O (centres unmarked) [Compound 401] | 0 | 0 | 0 | 20 | 45 | 0 | – | 0 | 0 | 0 | – | – | – | 10 | 30 |
